From patent US20250304952A1, “DNA ELEMENT RESPONSIVE TO EXTRACHROMOSOMAL DNA IN CANCER CELLS” (The Board of Trustees of the Leland Stanford Junior …, priority 2021, published 2025)

What was measured:
Type in all cases: cell-based, human
[1] = tested on: MYC mRNA in COLO320-HSR cells; assay: MYC RNA measured by RT-qPCR in COLO320-HSR; conditions: 500 nM, 6 hours
Procedure: Cells were then treated for 6 hours with 500 nM JQ1 in DMSO unless otherwise indicated (Sigma-Aldrich SML1524) or an equivalent volume of DMSO.
RNA was extracted using RNeasy Plus mini Kit (QIAGEN 74136). Purified RNA was quantified by Nanodrop (Thermo Fisher). For RT-qPCR, 50 ng of RNA, 1× Brilliant II qRT-PCR mastermix with 1 μL RT/RNase block (Agilent 600825), and 200 nM forward and reverse primer were used. Each Ct value was measured using Lightcycler 480 (Roche) and each mean dCt was averaged from duplicate qRT-PCR reaction and performed in biological triplicate. Relative MYC RNA level (RT-qPCR primers MYC_exon3_fw and MYC_exon3_rv) was calculated by ddCt method compared to 18S and GAPDH controls (RT-qPCR primers GAPDH_fw, GAPDH_rv, 18S_fw, 18S_rv). P values were calculated using a Student's t-test by comparing the relative fold change of biological triplicates.
Approximately 0.6×10^6 COLO320-DM or COLO-320-HSR cells were plated in 6 well plates and cultured under standard conditions for 24 hours. Cells were then treated for 6 hours with one of the following: 500 nM JQ1 (Sigma-Aldrich SML1524), 500 nM MS645 (Sigma Aldrich SML2549), 1 μM THZ-1 (Selleck chemicals S7549), 20 μM SGC-SCP30 (Selleck chemicals S7256), 10 μM OICR-9429 (Selleck chemicals S7833), 50 μM MI-3 (Selleck chemicals S7619), 2 μM trichostatin A (Selleck chemicals S1045), or DMSO. […]

FGFR2 in SNU16 = assay: Oncogene RNA measured by RT-qPCR in SNU16 (FGFR2); conditions: 500 nM JQ1, 6 hours
COLO320-HSR cells = assay: PVT1 promoter-driven NanoLuc luciferase reporter in COLO320-HSR; conditions: JQ1 500 nM, 6 hours
Text: We constructed a plasmid containing the 2 kb PVT1 promoter (chr8: 128,804,981-128,806,980, hg19) or the MYC promoter (chr8: 128,745,990-128,748,526, hg19) driving NanoLuc luciferase (PVT1p-nLuc) and a constitutive thymidine kinase (TK) promoter driving Firefly luciferase as an internal control (FIG. 3b). Briefly, pGL4-tk-luc2 (Promega) was digested with KpnI and PciI. A sequence containing multiple cloning sites ([…]), NanoLuc and BGH polyA sequence were inserted in tandem into the vector using Gibson assembly (NEBuilder DNA assembly mix). Next, the PVT1 promoter or the MYC promoter was inserted into the vector via NheI and SalI digestion to generate the final reporter construct. For the negative control, a minimal promoter ([…]) was used in place of the PVT1 promoter. For constructing plasmids with a cis-enhancer, an enhancer (chr8: 128347148-128348310, hg19; positive H3K27ac mark and looping to the PVT1 promoter in HiChIP, overlapping with BRD4 ChIP peak and ATAC-seq peak in COLO320-DM) was inserted directly 5′ to the promoter into the region with multiple cloning sites. […] Luciferase levels were quantified using Nano-Glo Dual reporter luciferase assay (Promega). The reporter level was calculated as the ratio of NanoLuc reading over firefly reading using Tecan M1000. Mean and standard errors were calculated based on three biological replicates with three technical replicate each.

[2] = tested on: COLO320-DM cells and COLO320-HSR cells; assay: JQ1 dose titration: cell viability (CellTiterGlo) and cell proliferation; conditions: viability 48 hours, proliferation over 72 hours
Procedure: Cells were plated in 96-well plates at 25,000 cells/well in triplicate and incubated either with JQ1 (Sigma-Aldrich SML1524) at the indicated concentrations or an equivalent volume of DMSO for 48 hours. Cell viability was measured using the CellTiterGlo assay kit (Promega G7572) in triplicate with luminescence measured on SpectraMax M5 plate reader with an integration time of 1 second per well. Luminescence was normalized to the DMSO treated controls and p values calculated using a Student's t-test comparing biological triplicates.
Cells were plated in 96-well plates at 10,000 cells/well and incubated either with JQ1 (Sigma-Aldrich SML1524) at the indicated concentrations or an equivalent volume of DMSO. Every 24 hours, cells were harvested and counted on Countess 3 Automated Cell Counter (Thermo Fisher) with Trypan Blue used to assess cell viability. P values were calculated using a Student's t-test comparing biological triplicates.

[3] = tested on: MYC transcription from ecDNA in COLO320-DM; assay: MYC transcription probability by joint nascent RNA and DNA FISH; conditions: 500 nM JQ1, 6 hours, RNA normalized to ecDNA copy number
Text: To quantify the MYC gene expression on the ecDNAs, we ordered the RNA FISH probes conjugated with a Quasar 570 dye (Biosearch Technologies) targeting to the intronic region of human (hg19) MYC gene for detection of nascent RNA transcript. We also ordered the RNA FISH probes conjugated with a Quasar 670 dye targeting to the exonic region of human MYC gene for detection of both mature and nascent RNA transcripts. […]
To characterize the ecDNA hub shape and size, we employed the synthetic model—Surfaces object from Imaris (version 9.1, Bitplane) and applied a Gaussian filter (σ=1 voxel in xy) and background subtraction for optimal segmentation and quantification of ecDNA hubs. ecDNA hubs containing connected voxels were sorted by size and singleton ecDNAs were separated from ecDNA hubs (minimal two ecDNA molecules).
To measure the number of ecDNA or nascent transcripts, we localized the voxels corresponding to the local maximum of identified DNA or RNA FISH signal using the Imaris spots function module. We validated the accuracy of interphase ecDNA counting by comparing to quantification of ecDNA number by metaphase FISH as well as copy number estimated by whole genome sequencing FIG. 5f). […]

Cc1sc2c(c1C)C(c1ccc(Cl)cc1)=N[C@@H](CC(=O)OC(C)(C)C)c1nnc(C)n1-2 [JQ1]
MYC mRNA level [1]: no significant effect
ecDNA-derived transcription of FGFR2 (FGFR2 in SNU16): reduced
repression of PVT1p-mediated transcription (COLO320-HSR cells): ~2 fold
cell killing, COLO320-DM versus COLO320-HSR [2]: modest preferential killing of COLO320-DM cells over HSR cells
reduction of MYC transcription probability per ecDNA copy [3]: four-fold
